Experimental data: patent US9150590B2, “Process for the synthesis of rifaximin and a new pseudo-crystalline form of rifaximin obtained thereby” (Friulchem Spa, priority 2011, dated 2015)

Assay: polymorphic stability on drying or wetting (XRPD, Karl Fischer water content)
Format: physicochemical
Conditions: water content between 0.5% and 7% (Karl Fisher)
Excerpt: Advantageously, the pseudo-crystalline rifaximin is stable at a water content comprised between 0.5% and 7%. In contrast to the rifaximin of the state of the art, transition from one polymorphic form to another is not observed when the water content varies between 0.5% and 7%. […] Water content is typically assessed according to the Karl Fisher method.
In the processes of the present invention, the absence of salts (methylaminopyridine hydrochloride and ascorbic acid salts) and the final pH of the solution yield a pseudo-crystalline form of rifaximin which is stable at various water contents comprised between 0.5% and 7%. This pseudo-crystalline form is stable upon drying or wetting with water and transition between different polymorphic forms depending on the water content is not observed. The rifaximin obtained by the process of the present invention is polymorphically stable.
Advantageously, the X-ray diffractogramm of the rifaximin according to the present invention is not modified when the water content varies between 0.5% and 7%.
The diffractograms have been carried out by using the SIEMENS D5000 instrument and under the following working conditions: • Radiation used: Kα of Copper (λ=1.5406 Å) • Tension of the generator: KV 35 • Current of the generator: 30 mA • Starting and final angular 2θ value: from 2.0° to 60.0°.

- polymorphic stability (transition to another polymorphic form): stable
SMILES: CO[C@H]1/C=C/O[C@@]2(C)Oc3c(C)c(O)c4c(O)c(c5c(nc6cc(C)ccn65)c4c3C2=O)NC(=O)/C(C)=C\C=C\[C@H](C)[C@H](O)[C@@H](C)[C@@H](O)[C@@H](C)[C@H](OC(C)=O)[C@@H]1C [pseudo-crystalline rifaximin, rifaximin]
